From EP4603105A1, “PHARMACEUTICAL COMPOSITION CONTAINING CYCLIC COMPOUND HAVING SELECTIVE KRAS INHIBITORY EFFECT AGAINST HRAS AND NRAS” (CHUGAI SEIYAKU KABUSHIKI KAISHA, priority 2022, dated 2024)
Where a SMILES comes first, the peptide text is derived from it. Bridges are numbered along the chain shown (N, C = ends). [ ]: non-standard residue; d: D form. hPhe(3-Cl-4-CF3) = N[C@@H](CCc1ccc(C(F)(F)F)c(Cl)c1)C(=O)O; NPrPhe(4-CF3) = CCCN[C@@H](Cc1ccc(C(F)(F)F)cc1)C(=O)O; NMeGly(cPent) = CN[C@H](C(=O)O)C1CCCC1; Pro(4,4-F2) = O=C(O)[C@@H]1CC(F)(F)CN1; NMeL = CN[C@@H](CC(C)C)C(=O)O; Aze = O=C(O)[C@@H]1CCN1; Ac4c = NC1(C(=O)O)CCC1; Sar = CNCC(=O)O

Key:
[1] = tested on: human lung cancer strain NCI-H441; format: cell-based
Outline: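 Proliferation was scored by […] measured after the reagent was added to cultures kept at 37°C in 5% carbon dioxide.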

[2] = target: GDP-bound KRAS wild-type protein (Homo sapiens, UniProt P01116); assay: Binding to KRAS by surface plasmon resonance (SPR), dissociation constant KD
GDP-bound KRAS wild-type protein, sequence (P01116 1-188 isoform P01116-2): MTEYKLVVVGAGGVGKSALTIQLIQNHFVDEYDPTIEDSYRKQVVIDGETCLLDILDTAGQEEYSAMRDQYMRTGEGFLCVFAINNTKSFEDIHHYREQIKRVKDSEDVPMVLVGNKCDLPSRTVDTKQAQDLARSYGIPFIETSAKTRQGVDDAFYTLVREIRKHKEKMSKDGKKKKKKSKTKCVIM
Outline: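 Biotinylated GDP-bound RAS was captured at about 100–300 RU. Running buffer: HBS pH 7.4, 10 mM MgCl2, 10 µM GDP, 1 mM DTT, 0.01% Tween 20, 4% DMSO.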

HRAS wild-type protein = HRAS wild-type protein (Homo sapiens, UniProt P01112); assay: Binding to HRAS by surface plasmon resonance (SPR), KD and KD ratio to KRAS
HRAS wild-type protein, sequence (P01112 whole entry): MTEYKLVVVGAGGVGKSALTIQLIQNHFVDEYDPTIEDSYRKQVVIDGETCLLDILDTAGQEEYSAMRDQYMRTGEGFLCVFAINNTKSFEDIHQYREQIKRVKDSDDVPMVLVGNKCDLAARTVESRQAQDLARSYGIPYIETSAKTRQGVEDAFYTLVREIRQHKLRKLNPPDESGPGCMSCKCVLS
Outline: (§1)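 Single-cycle kinetics on GDP-loaded biotin-Avi RAS captured to ~100–300 RU; 75 s ascending injections, 100 µL/min, 30°C. HBS pH 7.4 + 10 mM MgCl2/10 µM GDP/4% DMSO. 1:1 fit, KD.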

[3] = target: GDP-bound NRAS wild-type protein (Homo sapiens, UniProt P01111); assay: Binding to NRAS by surface plasmon resonance (SPR), KD and KD ratio to KRAS
GDP-bound NRAS wild-type protein, sequence (P01111 whole entry): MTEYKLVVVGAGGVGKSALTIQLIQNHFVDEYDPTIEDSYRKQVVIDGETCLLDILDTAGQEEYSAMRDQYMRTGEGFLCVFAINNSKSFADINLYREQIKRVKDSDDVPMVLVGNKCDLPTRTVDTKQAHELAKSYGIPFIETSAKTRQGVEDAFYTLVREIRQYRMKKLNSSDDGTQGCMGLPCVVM
Outline: as §1

[4] = Single Cycle Kinetics, 1:1 binding model
[5] = ratio of KD for HRAS wild-type protein to KD for KRAS
[6] = ratio of KD for GDP-bound NRAS wild-type protein to KD for KRAS
[7] = ratio of KD value for HRAS wild-type protein to KD value for KRAS (SPR)
[8] = ratio of KD value for GDP-bound NRAS wild-type protein to KD value for KRAS (SPR)

| IC50 [1] [nM] | Kd [2, 4] [nM] | Kd ([2]; 1:1 binding model) [nM] | Kd ([2]; Single Cycle Kinetics) [nM] | SMILES | HRAS /KRAS (HRAS wild-type protein; ratio of the KD value with respect to HRAS wild-type protein to the KD value with respect to KRAS) | NRAS /KRAS ([3]; ratio of the KD value with respect to GDP-bound NRAS wild-type protein to the KD value with respect to KRAS) | HRAS /KRAS (HRAS wild-type protein; [5]) | NRAS /KRAS [3, 6] | HRAS /KRAS (HRAS wild-type protein; [7]) | NRAS /KRAS [3, 8] |
| --- | --- | --- | --- | --- | --- | --- | --- | --- | --- | --- |
| 70.3 | 0.55 |  |  | CCOC[C@H]1C(=O)N[C@@H]([C@@H](C)CC)C(=O)N(C2CC2)CC(=O)N(C)[C@H]2C/C=C\CCN(C2=O)[C@@H](CC2CCCCC2)C(=O)N(C)CC(=O)N[C@@H](CCc2ccc(C(F)(F)F)c(OC)c2)C(=O)N2C[C@H](OCC)C[C@H]2C(=O)N(C)C2(CCC2)C(=O)N(C)[C@@H](C2CCCC2)C(=O)N(C)[C@H](C(=O)N(C)C)CC(=O)N1C [PP2342] | A (a compound having 10 or more and less than 20 is denoted as A) | A (a compound having 10 or more and less than 20 is denoted as A) |  |  |  |  |
| 8.1 |  | 0.29 |  | CCC[C@H]1C(=O)N[C@@H](C2CCCC2)C(=O)N(C)CC(=O)N(C)[C@H]2C/C=C\CCN(C2=O)[C@@H](Cc2ccc(C)cc2)C(=O)N(C)CC(=O)N[C@@H](CCc2cc(F)c(C(F)(F)F)c(F)c2)C(=O)N2C[C@H](OCC)C[C@H]2C(=O)NC2(CC(C)(C)C2)C(=O)N(C)[C@@H](C2CCCC2)C(=O)N(C)[C@H](C(=O)N(C)C)CC(=O)N1C [PP2988] |  |  | B (a compound having 3 or more and less than 10 is denoted as B) | B (a compound having 3 or more and less than 10 is denoted as B) |  |  |
| 45.6 | 0.2 |  |  | CCO[C@@H]1C[C@H]2C(=O)NC3(CCC3)C(=O)N(C)[C@@H](C3CCCC3)C(=O)N(C)[C@H](C(=O)N(C)C)CC(=O)N(C)[C@@H](CC3CC3)C(=O)N[C@@H]([C@@H](C)CC)C(=O)N(C)CC(=O)N(C)[C@H]3C/C=C\CCN(C3=O)[C@@H](Cc3ccc(F)cc3C)C(=O)N(C)CC(=O)N[C@@H](CCc3cc(F)c(C(F)(F)F)c(F)c3)C(=O)N2C1 [PP1528] |  |  |  |  | B (a compound having 3 or more and less than 10 is denoted as B) | A (a compound having 10 or more and less than 20 is denoted as A) |
| 2 | 0.081 |  |  | CCO[C@@H]1C[C@H]2C(=O)NC3(CCC3)C(=O)N(C)[C@@H](C3CCCC3)C(=O)N(C)[C@H](C(=O)N(C)CC)CC(=O)N(C)[C@@H](CC3CCC3)C(=O)N[C@@H]([C@@H](C)CC)C(=O)N(C)CC(=O)N(C)[C@H]3C/C=C\CCN(C3=O)[C@@H](Cc3ccc(C(F)(F)F)cc3)C(=O)N(C)CC(=O)N[C@@H](CCc3cc(F)c(C(F)(F)F)c(F)c3)C(=O)N2C1 [PP1667] |  |  |  |  | A (a compound having 10 or more and less than 20 is denoted as A) | A (a compound having 10 or more and less than 20 is denoted as A) |
| 114 |  | 2 |  | CCCN1C(=O)CN(C)C(=O)[C@@H]2CCN2C(=O)[C@H]([C@@H](C)CC)NC(=O)[C@H](CC(C)C)N(C)C(=O)C[C@@H](C(=O)N(C)C)NC(=O)[C@H](C2CCCC2)N(C)C(=O)C2(CCC2)NC(=O)[C@@H]2CC(F)(F)CN2C(=O)[C@H](CCc2ccc(C(F)(F)F)c(Cl)c2)NC(=O)CN(C)C(=O)[C@@H]1Cc1ccc(C(F)(F)F)cc1 [PP0376] ([NMeL]I[Aze][Sar][NPrPhe(4-CF3)][Sar][hPhe(3-Cl-4-CF3)][Pro(4,4-F2)][Ac4c][NMeGly(cPent)]D-NMe2; lactam N-11) |  |  | B (a compound having 3 or more and less than 10 is denoted as B) | B (a compound having 3 or more and less than 10 is denoted as B) |  |  |
| 300 |  |  | 3.5 | CCO[C@@H]1CCN2C(=O)[C@H](CCc3cc(F)c(C(F)(F)F)c(F)c3)NC(=O)CN(C)C(=O)[C@H](Cc3ccc(C(F)(F)F)cc3)N3CCCCC[C@@H](C3=O)N(C)C(=O)CN(C)C(=O)[C@H]([C@@H](C)CC)NC(=O)[C@H](CC(C)C)N(C)C(=O)C[C@@H](C(=O)N3CCOCC3)N(C)C(=O)[C@H](C3CCCC3)N(C)C(=O)C3(CCC3)NC(=O)[C@H]12 [PP1082] |  |  | B (a compound having 3 or more and less than 10 is denoted as B) | A (a compound having 10 or more and less than 20 is denoted as A) |  |  |
